Earlier results as cited in PMC9516332 (Frontiers in Oncology, 2022).

Experiments:
[1] = biological target: T1, panel of 255 wild-type kinases (Homo sapiens, UniProt O00418); details: kinase EEF2K; 1 µmol/L single concentration; ref DOI: 10.1158/1535-7163.MCT-18-0877; cited from earlier work
T1 sequence (O00418 1-725): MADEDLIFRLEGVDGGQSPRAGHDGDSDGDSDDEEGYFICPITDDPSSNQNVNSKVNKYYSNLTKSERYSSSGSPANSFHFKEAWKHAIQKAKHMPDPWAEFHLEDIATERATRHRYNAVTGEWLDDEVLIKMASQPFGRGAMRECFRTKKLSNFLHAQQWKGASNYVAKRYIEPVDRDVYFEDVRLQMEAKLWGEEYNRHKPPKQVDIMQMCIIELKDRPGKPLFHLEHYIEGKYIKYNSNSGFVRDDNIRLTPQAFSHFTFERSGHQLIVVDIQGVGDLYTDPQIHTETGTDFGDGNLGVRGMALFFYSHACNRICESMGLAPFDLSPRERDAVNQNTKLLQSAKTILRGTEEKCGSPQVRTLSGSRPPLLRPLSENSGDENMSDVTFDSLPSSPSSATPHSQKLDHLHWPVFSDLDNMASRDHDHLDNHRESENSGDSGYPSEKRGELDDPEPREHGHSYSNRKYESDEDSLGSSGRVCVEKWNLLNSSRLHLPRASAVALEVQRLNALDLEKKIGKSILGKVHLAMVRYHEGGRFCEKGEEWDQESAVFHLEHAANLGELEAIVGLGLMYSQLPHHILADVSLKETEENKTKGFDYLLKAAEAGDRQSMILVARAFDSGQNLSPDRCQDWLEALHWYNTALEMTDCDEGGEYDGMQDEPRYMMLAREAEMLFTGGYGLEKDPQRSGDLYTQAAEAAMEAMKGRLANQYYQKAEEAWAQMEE

[2] = biological target: panel of 255 wild-type kinases (Homo sapiens, UniProt P08069); details: kinase IGF1R; 1 µmol/L single concentration; ref DOI: 10.1158/1535-7163.MCT-18-0877; cited from earlier work
[3] = biological target: panel of 255 wild-type kinases (Homo sapiens, UniProt P29597); details: kinase TYK2; 1 µmol/L single concentration; ref DOI: 10.1158/1535-7163.MCT-18-0877; cited from earlier work
[4] = biological target: panel of 255 wild-type kinases (Homo sapiens, UniProt P49760); details: kinase CLK2; 1 µmol/L single concentration; ref DOI: 10.1158/1535-7163.MCT-18-0877; cited from earlier work
[5] = biological target: panel of 255 wild-type kinases (Homo sapiens, UniProt P51451); details: BLK kinase assay; 1 µmol/L single concentration; ref DOI: 10.1158/1535-7163.MCT-18-0877; cited from earlier work
[6] = biological target: T2, panel of 255 wild-type kinases (Homo sapiens, UniProt P54760); details: kinase EPHB4; 1 µmol/L single concentration; ref DOI: 10.1158/1535-7163.MCT-18-0877; cited from earlier work
T2 sequence (P54760 16-987): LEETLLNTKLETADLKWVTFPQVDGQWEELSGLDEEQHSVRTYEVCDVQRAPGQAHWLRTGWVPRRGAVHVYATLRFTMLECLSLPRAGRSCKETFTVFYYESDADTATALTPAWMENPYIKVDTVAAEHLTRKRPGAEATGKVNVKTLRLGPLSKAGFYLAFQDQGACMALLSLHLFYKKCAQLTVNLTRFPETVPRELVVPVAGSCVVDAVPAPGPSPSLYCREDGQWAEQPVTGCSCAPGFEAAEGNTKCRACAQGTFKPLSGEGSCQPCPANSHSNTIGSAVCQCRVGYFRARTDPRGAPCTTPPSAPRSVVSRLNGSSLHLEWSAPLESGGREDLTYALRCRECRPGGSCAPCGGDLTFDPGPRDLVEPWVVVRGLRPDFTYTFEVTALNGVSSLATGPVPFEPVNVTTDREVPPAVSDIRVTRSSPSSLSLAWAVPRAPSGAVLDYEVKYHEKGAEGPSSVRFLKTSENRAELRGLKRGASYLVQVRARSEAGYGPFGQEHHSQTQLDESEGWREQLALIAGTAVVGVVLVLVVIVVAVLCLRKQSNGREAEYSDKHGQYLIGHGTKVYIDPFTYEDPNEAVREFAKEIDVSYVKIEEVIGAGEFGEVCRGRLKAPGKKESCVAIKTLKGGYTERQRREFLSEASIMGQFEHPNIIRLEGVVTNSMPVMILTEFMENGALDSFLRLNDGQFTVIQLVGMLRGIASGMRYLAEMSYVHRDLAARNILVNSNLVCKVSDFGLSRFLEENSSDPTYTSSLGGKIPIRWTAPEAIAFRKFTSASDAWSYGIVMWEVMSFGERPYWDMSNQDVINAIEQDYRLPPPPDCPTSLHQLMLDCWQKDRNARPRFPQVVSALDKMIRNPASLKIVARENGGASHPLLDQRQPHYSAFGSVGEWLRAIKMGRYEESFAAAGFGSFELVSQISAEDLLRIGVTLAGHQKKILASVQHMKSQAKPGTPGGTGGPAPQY

[7] = biological target: panel of 255 wild-type kinases (Homo sapiens, UniProt Q13153); details: PAK1; 1 µmol/L single concentration; ref DOI: 10.1158/1535-7163.MCT-18-0877; cited from earlier work
[8] = biological target: panel of 255 wild-type kinases (Homo sapiens, UniProt Q15349); details: kinase RSK3; 1 µmol/L single concentration; ref DOI: 10.1158/1535-7163.MCT-18-0877; cited from earlier work
[9] = biological target: panel of 255 wild-type kinases (Homo sapiens, UniProt Q7KZI7); details: MARK2; 1 µmol/L single concentration; ref DOI: 10.1158/1535-7163.MCT-18-0877; cited from earlier work
[10] = biological target: panel of 255 wild-type kinases (Homo sapiens, UniProt Q8N4C8); details: MINK; 1 µmol/L single concentration; ref DOI: 10.1158/1535-7163.MCT-18-0877; cited from earlier work
[11] = biological target: panel of 255 wild-type kinases (Homo sapiens, UniProt Q9HBH9); details: MNK2; 1 µmol/L single concentration; ref DOI: 10.1158/1535-7163.MCT-18-0877; cited from earlier work

Compound	%-inhibition at 1 µmol/L, EEF2K [1] [%]	%-inhibition at 1 µmol/L, IGF1R [2] [%]	%-inhibition at 1 µmol/L, TYK2 [3] [%]	%-inhibition at 1 µmol/L, CLK2 [4] [%]	%-inhibition BLK [5] [%]	%-inhibition at 1 µmol/L, EPHB4 [6] [%]	%-inhibition, PAK1 [7] [%]	%-inhibition at 1 µmol/L, RSK3 [8] [%]	%-inhibition, MARK2 [9] [%]	%-inhibition, MINK [10] [%]	%-inhibition, MNK2 [11] [%]
CC#CC(=O)N1CCC[C@H]1c1nc(-c2ccc(C(=O)Nc3ccccn3)cc2)c2c(N)nccn12 [acalabrutinib]	-12	0.466	13	-7	8.43	-1.45	-0.369	1.13	-9	-1.13	12
C=CC(=O)Nc1cc(Nc2nccc(-c3cn(C)c4ccccc34)n2)c(OC)cc1N(C)CCN(C)C [osimertinib]	-0.355	84	9	38	66	-3	-44	53	26	21	97
